Measured values reported in US20120121591A1 (priority 2009, published 2012).
Like-named read-outs stand apart in the source and are kept apart here. Positions of bridges follow the written chain, without caps; N, C: chain ends. Non-standard residues stand in square brackets, D forms with d. Residues, ends and D or L forms follow the SMILES beside them. Nva = CCC[C@H](N)C(=O)O

Experiments:
[1] = molecular target: T1, hKv1.3 (Homo sapiens, UniProt P22001); test: cell-based; type: cell-based; settings: for IC50: Kv1.3 (IWQ) IC50 (nM, Avg)
T1 sequence (P22001 whole entry): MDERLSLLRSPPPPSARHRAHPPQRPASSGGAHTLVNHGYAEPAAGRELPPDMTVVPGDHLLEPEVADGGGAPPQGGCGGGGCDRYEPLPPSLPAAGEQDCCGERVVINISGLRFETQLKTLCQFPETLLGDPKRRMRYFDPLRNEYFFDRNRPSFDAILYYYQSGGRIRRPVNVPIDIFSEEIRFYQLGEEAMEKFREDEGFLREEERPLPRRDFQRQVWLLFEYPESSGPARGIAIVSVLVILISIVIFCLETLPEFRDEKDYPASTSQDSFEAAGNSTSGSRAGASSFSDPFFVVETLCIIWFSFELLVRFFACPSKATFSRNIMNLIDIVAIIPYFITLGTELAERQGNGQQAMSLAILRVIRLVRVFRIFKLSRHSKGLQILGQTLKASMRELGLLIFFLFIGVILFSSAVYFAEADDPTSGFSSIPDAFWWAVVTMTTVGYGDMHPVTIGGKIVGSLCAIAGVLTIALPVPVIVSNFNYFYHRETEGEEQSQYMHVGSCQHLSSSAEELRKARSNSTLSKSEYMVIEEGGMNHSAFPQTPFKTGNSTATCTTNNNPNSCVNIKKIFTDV

[2] = tested on: IFN-g secretion from T cells in human whole blood; type: cell-based
[3] = tested on: IL-2 secretion from T cells in human whole blood; type: cell-based
[4] = molecular target: hKv1.1 (Homo sapiens, UniProt Q09470); test: cell-based; settings: Kv1.1 (IWQ) IC50 (nM, Avg)
hKv1.1, sequence (Q09470 whole entry): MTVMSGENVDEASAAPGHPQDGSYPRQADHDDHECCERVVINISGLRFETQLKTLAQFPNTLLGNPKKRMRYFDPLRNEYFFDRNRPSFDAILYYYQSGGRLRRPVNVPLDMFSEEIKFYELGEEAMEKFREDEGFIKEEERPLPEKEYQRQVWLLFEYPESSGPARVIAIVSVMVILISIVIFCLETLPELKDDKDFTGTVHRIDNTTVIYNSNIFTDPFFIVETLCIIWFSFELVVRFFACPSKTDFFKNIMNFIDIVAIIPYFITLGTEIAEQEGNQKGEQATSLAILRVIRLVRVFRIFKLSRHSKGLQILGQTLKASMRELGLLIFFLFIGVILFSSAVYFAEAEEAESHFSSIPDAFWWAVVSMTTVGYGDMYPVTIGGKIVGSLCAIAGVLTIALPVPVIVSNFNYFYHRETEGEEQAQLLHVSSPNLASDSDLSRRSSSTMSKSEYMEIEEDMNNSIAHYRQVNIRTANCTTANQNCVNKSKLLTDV

[5] = molecular target: human Kv1.3 (Homo sapiens, UniProt P22001); type: cell-based; settings: read-out: Kv1.3 IC50, whole cell patch clamp
human Kv1.3, sequence (P22001 whole entry): as the sequence (P22001 whole entry) above

[6] = molecular target: hKv1.5 (Homo sapiens, UniProt P22460); settings: read-out: Kv1.5 IC50; PatchXpress
hKv1.5, sequence (P22460 whole entry): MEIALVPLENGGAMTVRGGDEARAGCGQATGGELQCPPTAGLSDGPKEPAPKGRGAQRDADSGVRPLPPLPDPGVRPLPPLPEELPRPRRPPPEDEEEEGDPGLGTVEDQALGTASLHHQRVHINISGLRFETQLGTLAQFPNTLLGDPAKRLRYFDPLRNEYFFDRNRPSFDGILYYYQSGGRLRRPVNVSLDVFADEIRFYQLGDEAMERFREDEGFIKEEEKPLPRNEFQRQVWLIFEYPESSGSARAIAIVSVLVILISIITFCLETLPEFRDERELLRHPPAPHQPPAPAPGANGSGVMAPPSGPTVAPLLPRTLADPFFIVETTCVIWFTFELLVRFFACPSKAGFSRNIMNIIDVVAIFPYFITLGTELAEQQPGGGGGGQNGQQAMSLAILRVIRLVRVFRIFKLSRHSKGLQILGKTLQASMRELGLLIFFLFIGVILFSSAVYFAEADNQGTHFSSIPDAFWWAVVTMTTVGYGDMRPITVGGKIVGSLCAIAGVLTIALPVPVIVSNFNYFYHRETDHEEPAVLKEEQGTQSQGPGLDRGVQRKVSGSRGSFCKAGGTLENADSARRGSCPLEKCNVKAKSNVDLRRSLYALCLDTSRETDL

[7] = molecular target: hKv1.7 (Homo sapiens, UniProt Q96RP8); type: cell-based; settings: PatchXpress; read-out: Kv1.7 IC50
hKv1.7, sequence (Q96RP8 whole entry): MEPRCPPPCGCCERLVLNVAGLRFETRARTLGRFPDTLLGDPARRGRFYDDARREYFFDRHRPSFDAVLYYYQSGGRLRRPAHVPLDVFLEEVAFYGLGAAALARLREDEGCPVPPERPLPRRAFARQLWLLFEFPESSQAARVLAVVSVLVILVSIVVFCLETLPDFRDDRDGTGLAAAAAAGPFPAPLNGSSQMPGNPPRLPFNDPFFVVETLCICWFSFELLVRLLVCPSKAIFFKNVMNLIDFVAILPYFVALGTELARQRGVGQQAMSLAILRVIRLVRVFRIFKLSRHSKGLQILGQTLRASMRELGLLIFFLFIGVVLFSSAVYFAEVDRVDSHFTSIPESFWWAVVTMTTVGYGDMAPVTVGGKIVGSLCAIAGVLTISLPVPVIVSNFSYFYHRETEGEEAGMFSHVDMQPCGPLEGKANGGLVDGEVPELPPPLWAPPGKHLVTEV
Protocol: (§1) Kv1.1, Kv1.2, Kv1.3, Kv1.4, Kv1.6 and Kv1.7, PatchXpress®, planar patch-clamp electrophysiology. Ion channel currents were recorded at room temperature using PatchXpress® 7000A electrophysiology system from MDC using methods and cells described in Example 1 above.

[8] = molecular target: hKv1.4 (Homo sapiens, UniProt P22459); type: cell-based; settings: PatchXpress; read-out: Kv1.4 IC50
hKv1.4, sequence (P22459 whole entry): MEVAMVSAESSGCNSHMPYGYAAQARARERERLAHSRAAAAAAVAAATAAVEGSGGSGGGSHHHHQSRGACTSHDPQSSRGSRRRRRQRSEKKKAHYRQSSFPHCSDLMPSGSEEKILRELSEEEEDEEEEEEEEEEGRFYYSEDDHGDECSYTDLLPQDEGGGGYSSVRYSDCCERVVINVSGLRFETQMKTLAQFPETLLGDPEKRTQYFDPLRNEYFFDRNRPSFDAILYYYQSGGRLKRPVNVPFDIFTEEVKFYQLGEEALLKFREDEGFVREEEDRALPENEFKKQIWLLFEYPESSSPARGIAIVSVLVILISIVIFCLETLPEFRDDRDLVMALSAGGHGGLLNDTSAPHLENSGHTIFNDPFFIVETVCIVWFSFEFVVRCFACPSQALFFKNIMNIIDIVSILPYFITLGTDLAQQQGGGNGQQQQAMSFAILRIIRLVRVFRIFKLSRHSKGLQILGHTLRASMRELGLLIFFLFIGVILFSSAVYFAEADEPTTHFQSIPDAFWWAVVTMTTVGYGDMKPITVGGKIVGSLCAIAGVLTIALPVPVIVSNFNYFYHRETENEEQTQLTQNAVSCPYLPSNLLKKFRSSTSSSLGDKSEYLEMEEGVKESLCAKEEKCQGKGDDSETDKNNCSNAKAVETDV
Protocol: as §1

[9] = molecular target: hKv1.2 (Homo sapiens, UniProt P16389); type: cell-based; settings: PatchXpress; read-out: Kv1.2 IC50
hKv1.2, sequence (P16389 whole entry): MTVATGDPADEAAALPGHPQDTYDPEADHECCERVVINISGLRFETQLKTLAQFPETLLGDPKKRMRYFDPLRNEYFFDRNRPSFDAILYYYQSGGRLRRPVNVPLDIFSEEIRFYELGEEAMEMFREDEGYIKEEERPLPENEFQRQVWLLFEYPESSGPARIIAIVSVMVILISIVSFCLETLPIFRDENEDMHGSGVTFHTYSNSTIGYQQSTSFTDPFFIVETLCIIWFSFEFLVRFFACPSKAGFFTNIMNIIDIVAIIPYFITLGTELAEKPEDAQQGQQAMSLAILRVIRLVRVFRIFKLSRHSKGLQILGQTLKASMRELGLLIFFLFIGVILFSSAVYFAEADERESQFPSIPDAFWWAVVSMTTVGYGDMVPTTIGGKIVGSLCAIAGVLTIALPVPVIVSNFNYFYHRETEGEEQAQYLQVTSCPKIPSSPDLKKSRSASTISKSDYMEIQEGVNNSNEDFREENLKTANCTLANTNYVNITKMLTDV
Protocol: as §1

[10] = molecular target: hKv1.6 (Homo sapiens, UniProt P17658); type: cell-based; settings: PatchXpress; read-out: Kv1.6 IC50
hKv1.6, sequence (P17658 whole entry): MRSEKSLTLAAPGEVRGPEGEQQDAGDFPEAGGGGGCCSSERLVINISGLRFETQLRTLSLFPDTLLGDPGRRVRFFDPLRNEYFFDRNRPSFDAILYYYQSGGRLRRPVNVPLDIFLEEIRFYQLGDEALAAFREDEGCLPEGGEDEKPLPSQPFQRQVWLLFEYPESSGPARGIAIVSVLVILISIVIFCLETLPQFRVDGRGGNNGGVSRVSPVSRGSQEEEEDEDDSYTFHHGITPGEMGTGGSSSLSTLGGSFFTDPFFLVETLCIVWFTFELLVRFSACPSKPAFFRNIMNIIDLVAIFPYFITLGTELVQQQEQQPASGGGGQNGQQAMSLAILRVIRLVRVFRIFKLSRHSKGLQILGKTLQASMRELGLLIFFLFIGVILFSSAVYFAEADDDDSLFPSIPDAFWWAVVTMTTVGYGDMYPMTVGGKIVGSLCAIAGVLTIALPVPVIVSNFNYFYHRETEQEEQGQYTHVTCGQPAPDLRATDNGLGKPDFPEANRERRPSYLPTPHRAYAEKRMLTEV
Protocol: as §1

[11] = tested on: rat T effector memory cell line, PAS; type: cell-based; settings: read-out: IC50 inhibition of myelin-specific proliferation of PAS T cells
[12] = type: in vivo, rat
Text: Single subcutaneous doses were delivered to animals and serum was collected at various time points after injection. Studies in rats, dogs (beagles), and cynomolgus monkeys involved two to three animals per dose group, with blood and serum collection occurring at various time points over the course of the study. Male Sprague-Dawley (SD) rats (about 0.3 kg), male beagles (about 10 kg) and male cynomolgus monkeys (about 4 kg) were used in the studies described herein (n=3 animals per dose group). Approximately 5 male CD-1 mice were used per dose and time point in our mouse pharmacokinetic studies. Serum samples were stored frozen at −80° C., until analysis in an enzyme-linked immunosorbent assay (ELISA).
Single subcutaneous doses were delivered to animals and serum was collected at various time points after injection. Three animals were used per dose group, with blood and serum collection occurring at various time points over the course of the study. Serum samples were stored frozen at −80° C., until analysis in an enzyme-linked immunosorbent assay (ELISA). […] A brief description of these ELISA protocols is provided: […]

[13] = molecular target: T1, hKv1.3; test: cell-based
[14] = read-out: WB (IFNg) IC50 (nM, Avg)
[15] = read-out: WB (IL-2) IC50 (nM, Avg)
[16] = Sprague-Dawley rats, single SC 6 mg/kg

Question: For `CCC[C@@H]1NC(=O)[C@H](CO)NC(=O)[C@H]([C@@H](C)O)NC(=O)[C@H](CCCNC(=N)N)NC(=O)[C@@H]2CSSC[C@@H]3NC(=O)[C@H]([C@@H](C)O)NC(=O)[C@H](CCCCN)NC(=O)[C@H](CCCNC(=N)N)NC(=O)[C@H](CSSC[C@H](NC(=O)[C@H](CCC(=O)O)NC(=O)[C@H](CO)NC(=O)[C@H](C(C)C)NC(=O)[C@@H]4CCCN4C(=O)[C@H]([C@@H](C)CC)NC(=O)[C@H](CC(C)C)NC(=O)[C@H](CC(=O)O)NC(=O)[C@H](CCCCN)NC(=O)[C@@H](NC(=O)[C@@H](NC(=O)[C@@H](N)CCCNC(=N)N)[C@@H](C)O)CSSC[C@@H](C(N)=O)NC(=O)[C@H](CO)NC(=O)CNC3=O)C(=O)N[C@@H]([C@@H](C)O)C(=O)N[C@@H](CC(=O)O)C(=O)N[C@@H]([C@@H](C)CC)C(=O)N[C@@H](CCCCN)C(=O)N2)NC(=O)[C@H](CC(C)C)NC(=O)[C@H](CC(N)=O)NC(=O)[C@H](CC(C)C)NC(=O)[C@H](CCCNC(=N)N)NC(=O)[C@H](Cc2ccc(O)cc2)NC(=O)[C@H](CCCCN)NC1=O` [[Lys16, Nva21]HmK-amide] (H-RTCKDLIPVSECTDIKCRTS[Nva]KYRLNLCRKTCGSC-NH2; disulfide 3-35, 12-28, 17-32), which “Kv1.1/Kv1.3 Selectivity Ratio” value [1] is on record?
Answer: The value was 0.025.

Question: And the IC50 [1]?
Answer: Its IC50 is 23 nM.

Question: And the “WB (IFNg) Potency Relative to ShK” value [2]?
Answer: Its value is 188.96.

Question: And the IC50 [2, 14]?
Answer: The IC50 was 9.83 nM.

Question: And the “WB (IL-2) Potency Relative to ShK” value [3]?
Answer: Its value is 148.53.

Question: And the IC50 [3, 15]?
Answer: Its IC50 is 6.39 nM.

Question: And the IC50 [4]?
Answer: Its IC50 is 0.58 nM.

Question: With “Monovalent aKLH HC-ShK(1-35 Q16K) Ab: anti-KLH IgG2 antibody with [Lys16]ShK fused to the C-terminus of one heavy chain” as the compound, how does the IC50 [5] read?
Answer: The IC50 was 0.354 nM.

Question: And the IC50 [6]?
Answer: Its IC50 is > 10000 nM.

Question: What about the IC50 ([2]; read-out: WB (IFNg) IC50) of the same compound?
Answer: The IC50 was 0.657 nM.

Question: What about the IC50 ([3]; read-out: WB (IL-2) IC50) of the same compound?
Answer: Its IC50 is 0.292 nM.

Question: And the IC50 [7]?
Answer: Its IC50 is > 10000 nM.

Question: What about the IC50 [8] of the same compound?
Answer: Its IC50 is > 10000 nM.

Question: What about the IC50 [9] of the same compound?
Answer: Its IC50 is 7970 nM.

Question: And the IC50 [10]?
Answer: Its IC50 is > 616 nM.

Question: And the IC50 [11]?
Answer: The IC50 was 0.839 nM.

Question: What about the “Exposure (AUC0-inf) normalized for MW, times greater than ShK-L5” value ([12]; 150 kDa//4 kDa) of the same compound?
Answer: Its value is “about 163 times”.

Question: What about the AUC0-t [12, 16] of the same compound?
Answer: The AUC0-t was 481 ± 157 µg·h/mL.

Question: And the Cmax [12, 16]?
Answer: The Cmax was 5890 ± 1770 ng/mL.

Question: What about the HL [12, 16] of the same compound?
Answer: The HL was 32 ± 13.9 h.

Question: And the Tmax [12, 16]?
Answer: The Tmax was 32 ± 13.9 h.

Question: Which IC50 [1] does the source give for `CC[C@H](C)[C@@H]1NC(=O)[C@@H](NC(=O)[C@H](CO)NC(=O)[C@@H](N)CCCNC(=N)N)CSSC[C@@H](C(=O)N[C@@H](C)C(=O)O)NC(=O)[C@H]([C@@H](C)O)NC(=O)CNC(=O)[C@@H]2CSSC[C@@H]3NC(=O)[C@H](CCCCN)NC(=O)[C@H](Cc4ccccc4)NC(=O)[C@H](C)NC(=O)[C@H]([C@@H](C)O)NC(=O)[C@H](CSSC[C@H](NC(=O)[C@H](Cc4ccccc4)NC(=O)[C@H](CO)NC(=O)[C@H](CC(C)C)NC(=O)[C@H](CCCNC(=N)N)NC(=O)[C@H](Cc4ccc(O)cc4)NC(=O)[C@H](CCCCN)NC(=O)[C@H](CCSC)NC(=O)[C@H](CO)NC(=O)[C@H](Cc4c[nH]cn4)NC(=O)[C@H](CCCCN)NC3=O)C(=O)N[C@@H](CCCNC(=N)N)C(=O)N[C@@H](CCCCN)C(=O)N[C@@H]([C@@H](C)O)C(=O)N2)NC(=O)[C@H](CCCNC(=N)N)NC(=O)[C@H](CO)NC(=O)[C@H](CCCCN)NC(=O)[C@@H]2CCCN2C(=O)[C@H]([C@@H](C)CC)NC(=O)[C@H]([C@@H](C)O)NC(=O)[C@H](CC(=O)O)NC1=O` [[Lys16]ShK-Ala] here?
Answer: The IC50 was 9.5 nM.

Question: What about the IC50 [13] of the same compound?
Answer: Its IC50 is 0.06 nM.

Question: And the IC50 ([2]; read-out: WB (IFNg) IC50)?
Answer: The IC50 was 0.266 nM.

Question: What about the IC50 [2, 14] of the same compound?
Answer: The IC50 was 0.266 nM.

Question: What about the IC50 ([3]; read-out: IC50 blocking IL-2 secretion from human whole blood) of the same compound?
Answer: The IC50 was 0.138 nM.

Question: What about the IC50 ([3]; read-out: WB (IL-2) IC50) of the same compound?
Answer: The IC50 was 0.138 nM.

Question: And the IC50 [3, 15]?
Answer: Its IC50 is 0.138 nM.
